# Reference: US8003673B2, “Daptomycin for the treatment of biofilm and catheter salvage” (Cubist Pharmaceuticals, Inc., priority 2006, dated 2011)
# Like-named read-outs stand apart in the source and are kept apart here.
# Key:
# Staphylococcus aureus = experiment: Susceptibility (MIC) of S. aureus #42 control strain; assay type: cell-based
# [1] = tested on: Staphylococcus epidermidis; experiment: Susceptibility (MIC) of S. epidermidis isolates used in CVC studies
# [2] = tested on: Methicillin-resistant coagulate negative staphylococci biofilms; assay type: cell-based, coagulase negative staphylococci (S. epidermidis isolates)
# Protocol: Methicillin-resistant coagulate negative staphylococci biofilms were grown to approximately 10^5 cells per cm^2 for 24 h in glass test tubes, planktonic bacteria rinsed away and Mueller Hinton broth (calcium supplemented to […] in daptomycin tests) containing antimicrobials added to the tubes. The concentrations of antimicrobials studied were two-fold dilutions from 64 to 1 μg/mL of daptomycin, rifampin, or daptomycin plus 0.5 μg/mL rifampin. The tests were incubated overnight in room air at 37° C. The cell density in rinsed biofilms was determined prior to addition of antimicrobials and after incubation. The change in bacterial density after incubation with antimicrobials was determined, and the results were expressed as the lowest antimicrobial concentration that killed 99.90% of biofilm bacteria. Bacteria recovered from tests containing rifampin were tested for rifampin susceptibility.
# [3] = tested on: S. epidermidis CVC infection; experiment: Rat model of CVC infection, infusion therapy; assay type: in vivo, Sprague Dawley rats
# Protocol: (§1) Male Sprague Dawley rats (˜250 g) with catheterized jugular veins were used in these studies. Rat catheters (polyurethane tubing, 0.025 inch internal diameter) were inoculated with a culture of S. epidermidis at 5×10^8 CFU/ml. The total volume of the catheters is approximately 40 μl. The catheters were flushed with heparinized saline 1 hour after inoculation, and were maintained by daily flushes. The catheter infection was monitored by daily blood draws that were plated and quantified.
# (§2) Daptomycin, vancomycin and nafcillin were used as therapy. Two different dosing regimes were used. The first mimicked clinical infusion with daptomycin administered at 5 mg/ml in the line for 30 minutes once daily compared to vancomycin at 5 mg/ml for 60 minutes twice daily, for a total of 4 days. The second regime simulated antibiotic lock therapy with an 18 hour exposure of daptomycin or vancomycin at 5 mg/ml, followed by a heparinized saline flush, daily for 3 days. In both regimes, the animals received parenteral doses of the appropriate antibiotic by subcutaneous route to simulate total body exposure (as it was not possible to administer the correct dosages through the line at 5 mg/ml). Most trials involved a therapy period, followed by a period of no antibiotic therapy to monitor for resurgence of infection due to surviving bacterial colonies.
# (§3) Infection levels were monitored by daily blood draws through the infected catheter. For the terminal harvest, a final blood draw was taken and then the flushed catheter was harvested, and analyzed for surviving bacteria by sonication, vortexing, and plating. The vena cava, heart, lung, kidney, and spleen were assayed as potential metastatic infection sites by aseptic harvest, homogenization, and plating.
# [4] = tested on: stationary phase S. epidermidis; experiment: In vitro model of stationary phase bacteria (kill kinetics); assay type: cell-based; conditions: for Cidal activity against stationary phase culture: through 24 hours
# Protocol: The impact of cidal activity of antibacterial compounds on stationary phase bacteria was assayed. Cultures of S. epidermidis and S. aureus were grown to stationary phase (>1×10^9 and centrifuged, washed 2×, and then resuspended into saline or lactated Ringer's solution. The cultures were treated with either daptomycin or vancomycin at 5 mg/ml and the decrease in viable bacteria were measured through 24 hours to determine the kill kinetics.
# [5] = tested on: S. epidermidis CVC infection; experiment: Rat model of CVC infection, antibiotic lock therapy; assay type: in vivo, Sprague Dawley rats; conditions: for Metastatic infection after lock therapy: lock therapy combined with SC dosing
# Protocol: as §1, §2, §3
# [6] = tested on: S. epidermidis biofilm in catheter; experiment: Histopathology of CVC biofilms in the rat model; assay type: in vivo, Sprague Dawley rats
# Protocol: The nature of the CVC infection and resulting biofilms in the catheter was determined through histopathology. The data on histopathology can be summarized as follows: • 1. Eight days after implantation, the rat central venous catheter model develops focal biofilms with or without bacterial colonies in the catheter's inner luminal surfaces. At this time point, the thickness of the biofilm varies between 7 to 15 microns. • 2. After 12 days of implantation, the fibrils making up the inner luminal surface biofilm appear to be denser and more organized, and the biofilm layer is slightly thicker (up to 25 microns). • 3. In the saline negative controls, bacterial colonies were present in the biofilm, and identified as Gram positive cocci. • 4. […] However, cocci-like, Gram positive individual round structures were noted. • 5.
# At day 12 post infection in untreated rats, as in the previous time point, biofilms tended to be present in the inner luminal surfaces of the indwelling catheter, 5-25 microns thick, and contained variable numbers of basophilic granular bacterial colonies (confirmed by Gram stain). However, in contrast to the previous time point, focal portions of the luminal protein cast appeared to be more organized and contained numerous bluish bacterial colonies. See FIG. 10 showing the biofilm appearance at day 12 post infection. […] Rat A1 served as negative control and received saline (2 mL/kg SC+saline via catheter); Rat A6 received low-dose daptomycin (10 mg/kg SC+5 mg/mL via catheter); Rat A12 received high-dose daptomycin (33 mg/kg SC+5 mg/mL via catheter); and Rat A17 received vancomycin (50 mg/kg SC+5 mg/mL via catheter). Tissues from the four rats were evaluated. FIG. 11, below, is a composite of the findings for all four rats.
# FIG. 11 provides histopathological evidence of daptomycin and vancomycin efficacy after 4 days of infusion therapy. In FIG. 11, from left to right, the images illustrate the CVC tissues from rats A1, A6, A12, and A17, respectively. The upper images are all H&E-stained and the bottom images are all Gram-stained. […] These round structures surrounded or encircled cell membranes.
# [7] = strain 42 Staphylococcus aureus, read-out: MIC
# [8] = strain 119 Staphylococcus epidermidis
# [9] = strain 1315 Staphylococcus epidermidis
# [10] = strain 1316 Staphylococcus epidermidis
# [11] = strain 1317 Staphylococcus epidermidis
# [12] = strain 1318 Staphylococcus epidermidis
# [13] = strain 1319 Staphylococcus epidermidis
# [14] = strain 1320 Staphylococcus epidermidis
# [15] = Antimicrobial Concentration ≧64
# [16] = day 15, after 6 days of antibiotic-free heparin flushes following infusion therapy
# [17] = following 7 days of antibiotic-free heparin flushes
SMILES,MIC (Staphylococcus aureus; [7]),"MIC [1, 8]","MIC [1, 9]","MIC [1, 10]","MIC [1, 11]","MIC [1, 12]","MIC [1, 13]","MIC [1, 14]","Animals with positive catheter at harvest after lock therapy [5, 17]",Metastatic infection after lock therapy [5],further results
CC(=O)NC[C@H]1CN(c2ccc(N3CCOCC3)c(F)c2)C(=O)O1 [Linezolid],2 µg/mL,1 µg/mL,0.5 µg/mL,1 µg/mL,0.5 µg/mL,1 µg/mL,0.5 µg/mL,1 µg/mL,–,–,–
CO[C@H]1/C=C/O[C@@]2(C)Oc3c(C)c(O)c4c(O)c(c(/C=N/N5CCN(C)CC5)c(O)c4c3C2=O)NC(=O)/C(C)=C\C=C\[C@H](C)[C@H](O)[C@@H](C)[C@@H](O)[C@@H](C)[C@H](OC(C)=O)[C@@H]1C [Rifampicin],< 0.004 µg/mL,0.008 µg/mL,< 0.004 µg/mL,0.008 µg/mL,> 4 µg/mL,–,< 0.004 µg/mL,0.008 µg/mL,–,–,"# of isolates (lowest concentration that killed 99.90% of biofilm bacteria) ([2]; Antimicrobial Concentration 1): 1 (1); (N) number of rifampin susceptible isolates that became rifampin resistant during test ([2]; Antimicrobial Concentration 1): 1 (1); Mean log10 reduction ([2]; Antimicrobial Concentration 1): 3.5 log10; # of isolates (lowest concentration that killed 99.90% of biofilm bacteria) ([2]; Antimicrobial Concentration 2): 0; # of isolates (lowest concentration that killed 99.90% of biofilm bacteria) ([2]; Antimicrobial Concentration 4): 1; Mean log10 reduction ([2]; Antimicrobial Concentration 4): 3.2 log10; # of isolates (lowest concentration that killed 99.90% of biofilm bacteria) ([2]; Antimicrobial Concentration 8): 2; Mean log10 reduction ([2]; Antimicrobial Concentration 8): 3.4 log10; # of isolates (lowest concentration that killed 99.90% of biofilm bacteria) ([2]; Antimicrobial Concentration 16): 2; (N) number of rifampin susceptible isolates that became rifampin resistant during test ([2]; Antimicrobial Concentration 16): 1; Mean log10 reduction ([2]; Antimicrobial Concentration 16): 3.0 log10; # of isolates (lowest concentration that killed 99.90% of biofilm bacteria) ([2]; Antimicrobial Concentration 32): 0; # of isolates (lowest concentration that killed 99.90% of biofilm bacteria) [2, 15]: 21; (N) number of rifampin susceptible isolates that became rifampin resistant during test [2, 15]: 7; Mean log10 reduction [2, 15]: 1.4 log10"
CN[C@H](CC(C)C)C(=O)N[C@H]1C(=O)N[C@@H](CC(N)=O)C(=O)N[C@H]2C(=O)N[C@H]3C(=O)N[C@H](C(=O)N[C@H](C(=O)O)c4cc(O)cc(O)c4-c4cc3ccc4O)[C@H](O)c3ccc(c(Cl)c3)Oc3cc2cc(c3O[C@@H]2O[C@H](CO)[C@@H](O)[C@H](O)[C@H]2O[C@H]2C[C@](C)(N)[C@H](O)[C@H](C)O2)Oc2ccc(cc2Cl)[C@H]1O [Vancomycin],–,1 µg/mL,1 µg/mL,1 µg/mL,1 µg/mL,2 µg/mL,1 µg/mL,1 µg/mL,None,cleared and prevented reemergence of metastatic infection,"Catheter infection by CVC blood draw after infusion therapy ([3]; 5 mg/ml in line, daptomycin once a day, vancomycin twice a day, after three days of therapy (day 8)): reduced most catheter infections to a non-detectable level; Relative efficacy in the rat CVC model ([3]; comparison between treatments): equally effective (to daptomycin in Ringer's); Animals with harvested catheter positive for S. epidermidis CFUs [3, 16]: 2/6; Animals with positive blood draws through the catheter [3, 16]: 0/6; Clearing of blood draw cultures during infusion therapy ([3]; doses days 5-8, daptomycin 30 minute once a day, vancomycin 60 min twice a day): negative blood draw cultures by day 8; Metastatic infection after infusion therapy (vena cava, heart, lung, kidney, spleen) ([3]; infusion therapy, same groups as FIG. 3): very little metastatic infection at any site; Cidal activity against stationary phase culture ([4]; 5 mg/ml in lactated Ringer's): no cidal activity; Cidal activity against stationary phase culture ([4]; 5 mg/ml in lactated Ringer's, listed as vancomycin): not cidal; Cidal activity against stationary phase culture ([4]; 5 mg/ml in saline): neither daptomycin nor vancomycin had cidal activity; Cidal activity against stationary phase S. epidermidis (conclusion) ([4]; in vitro, medium not stated): not cidal; MIC (Staphylococcus aureus; Staphylococcus aureus): 0.25 µg/mL; Overall outcome of lock therapy ([5]; 18 hour lock at 5 mg/ml): curative in lock therapy; Animals with positive blood draws after lock therapy [5, 17]: None; Biofilm formation and Gram positive bacterial colonies in the biofilm (histopathology summary) ([6]; 5 mg/mL via the catheter): did not prevent biofilm formation, or completely the growth and presence of Gram positive bacterial colonies in the biofilm; Bacterial colonies in biofilm, histopathology of single rats ([6]; after 4 days of infusion therapy, rat A12 daptomycin 33 mg/kg SC + 5 mg/mL via catheter, rat A17 vancomycin 50 mg/kg SC + 5 mg/mL via catheter): Biofilms containing true bacterial colonies"
CCOc1ccc2ccccc2c1C(=O)N[C@@H]1C(=O)N2[C@@H]1SC(C)(C)[C@@H]2C(=O)O [Nafcillin],0.125 µg/mL,0.031 µg/mL,2 µg/mL,16 µg/mL,0.125 µg/mL,> 16 µg/mL,16 µg/mL,> 16 µg/mL,all,A significant proportion of nafcillin-treated animals showed positive metastatic infections at multiple sites,–
